Reference: patent US20250353841A1 (BIOGEN MA INC., priority 2022, published 2025)
Like-named read-outs stand apart in the source and are kept apart here.

Legend:
[1] = test system: mutant Huntington (HTT) protein; experiment: HTT Mutant HTRF iPSC assay (mHTT protein lowering); assay type: cell-based; conditions: human iPSC derived from a HTT patient with a poly-Q49 mutation
[2] = test system: mHTT protein; conditions: HD patient cells; cited from earlier work
[3] = test system: mHTT protein; conditions: HD mouse model; cited from earlier work
[4] = test system: mHTT protein; conditions: blood samples from SMA Type I patients dosed orally; cited from earlier work

Row | SMILES | IC50 [1] [nM] | further results
1 | COc1cc(-c2cc(C#N)c3nc(C)cn3c2)cc2cn(C3CCNCC3)nc12 [Compound 546, 6-(7-methoxy-2-(piperidin-4-yl)-2H-indazol-5-yl)-2-methylimidazo[1,2-a]pyridine-8-carbonitrile] | 1000 to 9000 | 
2 | COc1cc(-c2cc(C)c3nc(C)nn3c2)cc2cn(C3CCNCC3)nc12 [Compound 547, 6-(7-methoxy-2-(piperidin-4-yl)-2H-indazol-5-yl)-2,8-dimethyl-[1,2,4]triazolo[1,5-a]pyridine] | 1000 to 9000 | 
3 | COc1cc(-c2cc(F)c3nc(C)cn3c2)cc2nn(C3CCNCC3)nc12 [Compound 548, 6-(8-fluoro-2-methyl-imidazo[1,2-a]pyridin-6-yl)-4-methoxy-2-(4-piperidyl)benzotriazole] | 1000 to 9000 | 
4 | Cc1cn2nc(-c3cc(OC(F)(F)F)c4nc(C5CCNCC5)cn4c3)cc(C)c2n1 [Compound 549, 2,8-dimethyl-6-(2-(piperidin-4-yl)-8-(trifluoromethoxy)imidazo[1,2-a]pyridin-6-yl)imidazo[1,2-b]pyridazine] | 100 to 1000 | 
5 | Cc1cn2nc(-c3ccc4nc(C5CCNCC5)oc4c3)cc(C)c2n1 [Compound 550, 6-(2,8-dimethylimidazo[1,2-b]pyridazin-6-yl)-2-(4-piperidyl)-1,3-benzoxazole] | 100 to 1000 | 
6 | Cc1cn2nc(-c3ccc4nc(C5CCNCC5)cn4c3)cc(C)c2n1 [Compound 551, 2,8-dimethyl-6-[2-(4-piperidyl)imidazo[1,2-a]pyridin-6-yl]imidazo[1,2-b]pyridazine] | < 100 | 
7 | Cc1cn2nc(-c3ccc4nc(C5CCN(C)CC5)cn4c3)cc(C)c2n1 [Compound 552] | 100 to 1000 | 
8 | Cc1nc2ccc(-c3ccc4nc([C@H]5[C@@H]6CN(C)C[C@@H]65)cn4c3)nn2n1 [Compound 553, 2-methyl-6-(2-((1R,5S,6r)-3-methyl-3-azabicyclo[3.1.0]hexan-6-yl)imidazo[1,2-a]pyridin-6-yl)-[1,2,4]triazolo[1,5-b]pyridazine] | 100 to 1000 | 
9 | Cc1cn2nc(-c3ccc4nc([C@H]5[C@@H]6CN(C)C[C@@H]65)cn4c3)cc(C)c2n1 [Compound 554, 2,8-dimethyl-6-(2-((1R,5S,6r)-3-methyl-3-azabicyclo[3.1.0]hexan-6-yl)imidazo[1,2-a]pyridin-6-yl)imidazo[1,2-b]pyridazine] | 100 to 1000 | 
10 | Cc1cn2nc(-c3cc(C)c4nc(C5CCNCC5)cn4c3)cc(C)c2n1 [Compound 555, 2,8-dimethyl-6-(8-methyl-2-(piperidin-4-yl)imidazo[1,2-a]pyridin-6-yl)imidazo[1,2-b]pyridazine] | 100 to 1000 | 
11 | Cc1cn2nc(-c3cc(Cl)c4nc(C5CCNCC5)cn4c3)cc(C)c2n1 [Compound 556, 6-(8-chloro-2-(piperidin-4-yl)imidazo[1,2-a]pyridin-6-yl)-2,8-dimethylimidazo[1,2-b]pyridazine] | 100 to 1000 | 
12 | Cc1cn2nc(-c3ccc4nc(C5CCNCC5)c(F)n4c3)cc(C)c2n1 [Compound 557] | < 100 | 
13 | Cc1cn2nc(-c3cc(F)c4nc(C5CCC6(CC5)CC(N)C6)[nH]c4c3)cc(C)c2n1 (stereo not drawn) [Compound 559, 7-(6-(2,8-dimethylimidazo[1,2-b]pyridazin-6-yl)-4-fluoro-1H-benzo[d]imidazol-2-yl)spiro[3.5]nonan-2-amine] | 100 to 1000 | 
14 | Cc1nc2ccc(-c3cc(F)c4nn(C5CCNCC5)cc4c3)nn2n1 [Compound 561, 6-(7-fluoro-2-(piperidin-4-yl)-2H-indazol-5-yl)-2-methyl-[1,2,4]triazolo[1,5-b]pyridazine] | < 100 | 
15 | Cc1nc2ccc(-c3cc(F)c4nc(C5CCNCC5)cn4c3)nn2n1 [Compound 577, 6-(8-fluoro-2-(piperidin-4-yl)imidazo[1,2-a]pyridin-6-yl)-2-methyl-[1,2,4]triazolo[1,5-b]pyridazine] | < 100 | 
16 | CC1(C)CC(Oc2ccc(-c3ccc(-c4cn[nH]c4)cc3O)nn2)CC(C)(C)N1 [branaplam] |  | mHTT protein levels [2]: lowers mHTT protein levels; mHTT protein levels [3]: lowers mHTT protein levels; mHTT protein levels [4]: lowers mHTT protein levels
